# Laboratory results published in ChEMBL document CHEMBL4828737, “Glutathione-responsive prodrug conjugates for image-guided combination in cancer therapy” (Eur J Med Chem, 2021).
# Calls of active or inactive are those of the source. The calls are words filed in the database; no cut-off is given here.
# Experiments:
# [1] = Toxicity in human HeLa cells xenografted in BALB/c nude assessed as histological changes in heart at 5 mg/kg, iv administered every 3 days for 15 days by H and E staining based microscopic analysis; assay type: organism-based; details: in vivo, 360 h, time 15 day
# [2] = GSH-mediated prodrug activation assessed as increase in fluorescence intensity at 10 uM measured at pH 5 by real time fluorescence spectra; details: pH 5, 10 µM
# [3] = Toxicity in BALB/c nude mouse xenografted with human HeLa cells assessed as histological changes in kidney at 5 mg/kg, iv administered every 3 days for 15 days by H and E staining based microscopic analysis; assay type: organism-based; details: in vivo, 360 h, time 15 day
# HepG2 [4] = assay: Antiproliferative activity against human HepG2 cells assessed as cell growth inhibition at 0.1 to 100 micromol/L measured after 48 hrs by MTT assay relative to control; assay type: functional, cell-based; details: dose 0.1-100 µmol/L
# [5] = Prodrug activation in human HeLa cells assessed as increase in fluorescence at 10 uM within 6 hrs by confocal laser scanning microscopic method; assay type: cell-based
# [6] = GSH-mediated prodrug activation assessed as increase in fluorescence intensity at 10 uM measured at 525 nm emission in presence of 0 to 500 uM of GSH by UV-vis absorption spectroscopy
# [7] = GSH-mediated prodrug activation assessed as increase in fluorescence intensity at 10 uM by UV-vis absorption spectroscopy
# HeLa [8] = assay: Induction of apoptosis in human HeLa cells assessed as early apoptotic cells at 30 uM incubated for 48 hrs by Annexin V/PI double staining base flow cytometry analysis (reference value: 2.59 %); assay type: functional
# [9] = Prodrug activation in human HeLa cells assessed as increase in fluorescence at 10 uM within 6 hrs in the presence of N-ethylmalemide by confocal laser scanning microscopic method; assay type: cell-based
# [10] = Toxicity in human HeLa cells xenografted in BALB/c nude mouse assessed as change in body weight at 5 mg/kg, iv administered every 3 days for 15 days; assay type: organism-based; details: in vivo, 360 h, time 15 day
# [11] = Toxicity in human HeLa cells xenografted in BALB/c nude mouse assessed as histological changes in liver at 5 mg/kg, iv administered every 3 days for 15 days by H and E staining based microscopic analysis; assay type: organism-based; details: in vivo, 360 h, time 15 day
# HepG2 [12] = assay: Antiproliferative activity against human HepG2 cells assessed as cell growth inhibition at 0.1 to 100 micromol/L measured after 24 hrs by MTT assay relative to control; assay type: functional, cell-based; details: dose 0.1-100 µmol/L
# HeLa [13] = assay: Induction of apoptosis in human HeLa cells assessed as viable cells at 30 uM incubated for 24 hrs by Annexin V/PI double staining base flow cytometry analysis (reference value: 82.3 %); assay type: functional; details: read-out: Activity
# [14] = Drug uptake in tumor of BALB/c nude mouse xenografted with human HeLa cells 10 uM, iv measured after 6 to 36 hrs by fluorescence imaging based IVIS optical imaging analysis; assay type: ADME, organism-based, Neoplasm; details: in vivo, time 6-36 hrs
# HeLa [15] = assay: Induction of apoptosis in human HeLa cells assessed as early apoptotic cells at 30 uM incubated for 24 hrs by Annexin V/PI double staining base flow cytometry analysis (reference value: 2.59 %); assay type: functional
# HeLa [16] = assay: Antitumor activity against human HeLa cells xenografted in BALB/c nude mouse assessed as reduction in tumor volume at 5 mg/kg, iv administered every 3 days for 15 days; assay type: functional, organism-based; details: time 15.0 day
# HeLa [17] = assay: Induction of apoptosis in human HeLa cells assessed as necrotic cells at 30 uM incubated for 24 hrs by Annexin V/PI double staining base flow cytometry analysis (reference value: 2.65 %); assay type: functional
# [18] = Toxicity in human HeLa cells xenografted in BALB/c nude assessed as histological changes in tumor at 5 mg/kg, iv administered every 3 days for 15 days by H and E staining based microscopic analysis; assay type: organism-based; details: in vivo, 360 h, time 15 day
# MCF7 [19] = assay: Antiproliferative activity against human MCF7 cells assessed as cell growth inhibition at 0.1 to 100 micromol/L measured after 48 hrs by MTT assay relative to control; assay type: functional, cell-based; details: dose 0.1-100 µmol/L
# [20] = Toxicity in BALB/c nude mouse xenografted with human HeLa cells assessed as histological changes in spleen at 5 mg/kg, iv administered every 3 days for 15 days by H and E staining based microscopic analysis; assay type: organism-based; details: in vivo, 360 h, time 15 day
# HEK-293T [21] = assay: Antiproliferative activity against human HEK293T cells assessed as cell growth inhibition at 0.1 to 100 micromol/L measured after 24 hrs by MTT assay relative to control; assay type: functional, cell-based; details: dose 0.1-100 µmol/L
# HeLa [22] = assay: Induction of apoptosis in human HeLa cells assessed as viable cells at 30 uM incubated for 48 hrs by Annexin V/PI double staining base flow cytometry analysis (reference value: 82.3 %); assay type: functional; details: read-out: Activity
# [23] = GSH-mediated prodrug activation assessed as increase in fluorescence intensity at 10 uM measured up to 2 hrs by real time fluorescence spectra
# HeLa [24] = assay: Antiproliferative activity against human HeLa cells assessed as cell growth inhibition at 0.1 to 100 micromol/L measured after 24 hrs by MTT assay relative to control; assay type: cell-based; details: dose 0.1-100 µmol/L
# HeLa [25] = assay: Induction of apoptosis in human HeLa cells assessed as late apoptotic cells at 30 uM incubated for 48 hrs by Annexin V/PI double staining base flow cytometry analysis (reference value: 12.5 %); assay type: functional
# HeLa [26] = assay: Antiproliferative activity against human HeLa cells assessed as cell growth inhibition at 0.1 to 100 micromol/L measured after 48 hrs by MTT assay relative to control; assay type: functional, cell-based; details: dose 0.1-100 µmol/L
# MCF7 [27] = assay: Antiproliferative activity against human MCF7 cells assessed as cell growth inhibition at 0.1 to 100 micromol/L measured after 24 hrs by MTT assay relative to control; assay type: functional, cell-based; details: dose 0.1-100 µmol/L
# HeLa [28] = assay: Induction of apoptosis in human HeLa cells assessed as necrotic cells at 30 uM incubated for 48 hrs by Annexin V/PI double staining base flow cytometry analysis (reference value: 2.65 %); assay type: functional
# HEK-293T [29] = assay: Antiproliferative activity against human HEK293T cells assessed as cell growth inhibition at 0.1 to 100 micromol/L measured after 48 hrs by MTT assay relative to control; assay type: cell-based; details: dose 0.1-100 µmol/L
# [30] = Drug uptake in tumor of BALB/c nude mouse xenografted with human HeLa cells 10 uM, iv measured after 24 hrs by fluorescence imaging based IVIS optical imaging analysis; assay type: ADME, organism-based, Neoplasm; details: in vivo
# HeLa [31] = assay: Induction of apoptosis in human HeLa cells assessed as late apoptotic cells at 30 uM incubated for 24 hrs by Annexin V/PI double staining base flow cytometry analysis (reference value: 12.5 %); assay type: functional
structure (smiles),measurement,setting,value
COc1ccc(OC(=O)CCCSSCCCC(=O)O[C@@H](C(=O)O[C@H]2C[C@@]3(O)[C@@H](OC(=O)c4ccccc4)[C@@H]4[C@]5(OC(C)=O)CO[C@@H]5C[C@H](O)[C@@]4(C)C(=O)[C@H](OC(C)=O)C(=C2C)C3(C)C)[C@@H](NC(=O)c2ccccc2)c2ccccc2)c(-c2nc3ccccc3s2)c1,Activity,[1],Non-Toxic
same,Drug metabolism,[2],Metabolite_Detected
same,Activity,[3],Non-Toxic
same,Activity,HepG2 [4],Active
same,Drug metabolism,[5],Metabolite_Detected
same,Drug metabolism,[6],Metabolite_Detected
same,Drug metabolism,[7],Metabolite_Detected
same,Activity,HeLa [8],14.4%
same,Drug metabolism,[9],Metabolite_Detected
same,Activity,[10],Non-Toxic
same,Activity,[11],Non-Toxic
same,Activity,HepG2 [12],Active
same,viability at 30 µM,HeLa [13],60.9%
same,Drug uptake,[14],Active
same,Activity,HeLa [15],6.79%
same,Activity,HeLa [16],Active
same,Activity,HeLa [17],3.59%
same,Activity,[18],Non-Toxic
same,Activity,MCF7 [19],Active
same,Activity,[20],Non-Toxic
same,Activity,HEK-293T [21],Active
same,viability at 30 µM,HeLa [22],8.39%
same,Drug metabolism,[23],Metabolite_Detected
same,Activity,HeLa [24],Toxic
same,Activity,HeLa [25],72.4%
same,Activity,HeLa [26],Active
same,Activity,MCF7 [27],Active
same,Activity,HeLa [28],4.86%
same,Activity,HEK-293T [29],Toxic
same,Drug uptake,[30],Active
same,Activity,HeLa [31],28.7%
CC(=O)O[C@H]1C(=O)[C@@]2(C)[C@H]([C@H](OC(=O)c3ccccc3)[C@]3(O)C[C@H](OC(=O)[C@H](O)[C@@H](NC(=O)c4ccccc4)c4ccccc4)C(C)=C1C3(C)C)[C@]1(OC(C)=O)CO[C@@H]1C[C@@H]2O [PACLITAXEL],Activity,HeLa [8],4.55%
same,Activity,[10],Non-Toxic
same,viability at 30 µM,HeLa [13],52.4%
same,Activity,HeLa [15],10.6%
same,Activity,HeLa [16],Active
same,Activity,HeLa [17],2.24%
same,viability at 30 µM,HeLa [22],26.7%
same,Activity,HeLa [25],66.6%
same,Activity,HeLa [28],2.12%
same,Activity,HeLa [31],34.7%
